Reference: EP4775199A1, “DRUG-RELEASING ELECTROACTIVE IMPLANT FOR NERVOUS SYSTEM REPAIR” (priority 2023, dated 2025)
Entries after “also recorded” stand apart in the source; their conditions may differ.

How the values were obtained:
meningeal fibroblasts = assay type: cell-based, rat; settings: 10 nM SB743921, 48 hours; control almost 90 %
Protocol: Meningeal fibroblasts were cultured from adult rat dura mater and arachnoid mater in the presence of fetal bovine serum following published procedures (Collazos-Castro JE, Polo JL, Hernández-Labrado […]. Bioelectrochemical Control of Neural Cell Development on Conducting Polymers. Biomaterials 2010;31:9244-9255). […] The behavior of living cells was studied by means of videomicroscopy, capturing images every 30 minutes for 48 hours. In separate cultures, cell proliferation was also studied by means of the incorporation of 5-ethynyl-2'-deoxyuridine (EdU).

[1] = Systemic (subcutaneous) administration of SB743921 after spinal cord transection; assay type: in vivo, rats; settings: rat, in vivo, every 12 hours, starting 12 hours post-injury, at 7 DPI
Protocol: (§1) A spinal transection model in adult male Wistar rats was used. Experimental protocols followed European Commission regulations and Spanish legislation for the protection of experimental animals (86/609/EEC, 32/2007, and 223/1988) and were approved by the Ethical Committee for Animal Experimentation of the Hospital Nacional de Parapléjicos of Toledo, Spain. In summary, animals were anesthetized by intraperitoneal (IP) injection of pentobarbital (50 mg/kg) and xylazine (10 mg/kg), providing supplemental doses of 30% one and a half hours later as needed. There were also administered atropine (0.04 mg/kg, IP) to decrease bronchial secretions, marbofloxacin as a prophylactic antibiotic, and ophthalmic ointment to prevent corneal abrasion. A dorsal laminectomy of the T9-T10 vertebrae, under which the T10 and T11 spinal segments are located, respectively, was performed. A small diagonal cut was made in the dura mater, followed by complete spinal cord transection. After a second more rostral cut, the tissue in between was extirpated leaving a neural tissue gap of about 2 mm (Figure 1A). Bleeding was controlled by introducing a fragment of Espongostan® into the cavity, which was removed once hemostasis was achieved. Durorrhaphy was then performed with simple stitches using 10-0 thread; and finally, the muscles and skin were sutured in layers.
(§2) The same spinal cord transection model described in Example 1 was used, in other words, a 2 mm neural gap was created and the dura mater was sutured without other treatments at the injured site. The drug was dissolved in water at 0.8 mg/ml and administered subcutaneously (SC).
(§3) Neural damage, Fibrosis development, inflammation, and repair responses (axonal growth, glial migration, blood vessel growth) were evaluated by means of immunohistochemical staining for axons (neurofilament, NF, Sigma-Aldrich N0142; serotonin, ImmunoSolution IG1112; tyrosine hydroxylase, TH, Sigma AB152), neuronal somas and their dendrites (microtubule-associated protein, MAP2, Sigma M1406), astroglia (glial fibrillary acidic protein, GFAP, BD Biosciences 556327); pericytes and fibroblasts (PDGFR, Abcam AB32570; type IV collagen, Meridian, T40251R), macrophages and microglia (ED1; Chemicon MAB 1435; isolectin B4, Fisher I21411), and endothelial cells (RECA1, Bio-Rad, MCA970R).

[2] = system: rats with spinal cord transection; test: as above; assay type: in vivo; settings: for Reduction of fibrosis: 7 DPI
Protocol: as §1, §2, §3

[3] = system: rats with spinal cord transection
[4] = regimen a: 1 mg/kg subcutaneous, one dose every 24 hours for 2, 4, or 6 days, starting 12 hours post-injury
[5] = regimen b: 1 mg/kg SC, 5 doses, every 12 hours, starting 12 hours post-injury
[6] = regimen c: 1 mg/kg SC, 4 doses, every 12 hours, starting 24 hours post-injury
[7] = regimen e: 1,125 mg/kg SC, 4 doses, every 12 hours, starting 12 hours post-injury

Q: Which results are given for Cc1ccc(C(=O)N(CCCN)[C@@H](c2oc3cc(Cl)ccc3c(=O)c2Cc2ccccc2)C(C)C)cc1 [SB743921]?
A: cells that incorporated EdU (meningeal fibroblasts): 20%; mortality at 168 h ([1]; 1.125 mg/kg, regimen e: 1,125 mg/kg SC, 4 doses): > 90%; mortality at 168 h ([1]; regimen b: 1 mg/kg SC, 5 doses): > 50%; neural tissue gap ([2]; Figure 3, 7 DPI, GFAP and MAP2 labeling, initial gap 2 mm): less than 500 µm; fibrosis (PDGFR) ([2]; Figure 3, 7 DPI, regimen not stated): partial reduction; Neural tissue damage ([2]; rat, in vivo, sc, 1 mg/kg): Severe spinal atrophy with 6 doses.; Systemic adverse effects [2, 4]: No detected in the period of survival (7 days post-injury, DPI).; Reduction of fibrosis [2, 4]: Slight reduction from the 4th dose.; signs of neurotoxicity in the perilesional tissue ([2]; regimen b): no obvious signs of neurotoxicity; Neural tissue damage [2, 5]: Mild microhemorrhages.; Systemic adverse effects [2, 5]: Diarrhea, peritonitis; Reduction of fibrosis [2, 5]: partially reduced fibrosis; also recorded: Partial; animals that had died 7 DPI ([2]; regimen b, signs of enterocolitis and bacterial translocation or intestinal perforation): Four of the seven; Neural tissue damage [2, 6]: Increases due to inflammation.; Reduction of fibrosis [2, 6]: Inconsistent.; Reduction of fibrosis ([2]; regimen d: 1 mg/kg SC, 4 doses, every 12 hours, starting 12 hours post-injury): Inconsistent.; Neural tissue damage [2, 7]: Inconsistent.; Systemic adverse effects [2, 7]: Diarrhea, peritonitis; Reduction of fibrosis [2, 7]: Inconsistent.

Q: Which results are given for Cc1ccc(NC(=O)c2ccc(CN3CCN(C)CC3)cc2)cc1Nc1nccc(-c2cccnc2)n1 [imatinib]?
A: safety (death, adverse effects) ([3]; imatinib regimen a: 4 doses of 5 mg/kg SC, every 12 hours, starting 12 hours post-injury, with implant and ES): completely safe; inflammatory cells in the perilesional spinal segments ([3]; imatinib regimen a: 4 doses of 5 mg/kg SC, every 12 hours, with implant and ES): reduced presence of inflammatory cells; PDGFR+ residual fibrotic tissue in the injury site ([3]; imatinib regimen b: regimen a and additionally 5 mg/kg everyday until the end of electrostimulation, with implant and ES): practically eliminated; cases with separation of the stumps of the spinal cord ([3]; imatinib regimen b, with implant and ES): two thirds; distance between the astrocyte front of the stumps ([3]; imatinib regimen b, with implant and ES, 14 DPI, remaining one-third of the animals): about 400 µm; axonal extension and branching ([3]; implant with ES combined with subcutaneous imatinib versus implant with ES alone): significantly increasing axonal extension and branching
